From patent US11130781B2, “Antimicrobial peptides and their use” (UNIVERSITEIT UTRECHT HOLDING B.V., priority 2017, dated 2021)
Read-outs that look alike come from different tables or passages of the source. Where no end group is shown, it is not given here.

What was measured:
Assay type in all cases: cell-based
[1] = tested on: primary human nasal epithelial cells; test: Toxicity measurement (WST-1 conversion); set-up: Toxicity: key to the marks not given beside the values
Method: The cytotoxic effect of all peptides was determined as previously described (2) using primary human nasal epithelial cells, obtained by nasal brushing of healthy individuals.
Cells were grown to confluence in 96-well plates in Bronchial Epithelial Cell Growth Medium (BEPC, Lonza) at 37° C. and 5% CO2. Peptides were diluted in the same medium to a final concentration of 5 μM and applied to the washed (PBS, twice) cells and incubated for 3 hours or 24 hours at 37° C. After incubation, the medium was removed, cells were washed twice (PBS) and fresh BEPC containing 10% (v/v) cell proliferation reagent WST-1 (Roche) was added to each well.
Conversion of WST-1 is indicative for cell viability and reduced conversion by cells is a measure for cytotoxic effects exerted by peptides. After incubation for 30 minutes at 37° C. the absorbance of each well was measured at 450 nm and 650 nm (reference wavelength). Controls included cells exposed to peptide-free medium (set to 100% WST-1 conversion) and wells without cells (background). Results are based upon 5 individual experiments and defined as follows: “0”, no toxicity; “+”, weakly toxic; “++”, moderately toxic; “+++”, toxic; “++++”, very toxic.

Pseudomonas aeruginosa = conditions: 18 h
Method: (§1) Bacteria (2×10E6 CFU/ml) were suspended in MHB+0.9% NaCl and were mixed 1:1 (vol/vol) with peptides dissolved in the same medium in various concentrations (final conc. 0-10 μM) and added to Bioscreen C analyzer plates (Oy Growth Curves Ab Ltd., Helsinki, Finland) and incubated for 18 h at 37° C. while shaking (200 rpm) in a Bioscreen C analyzer (Oy Growth Curves Ab Ltd). The OD (600 nm) was measured every 15 min. Minimal Inhibitory Concentrations (MIC values) were assessed for each peptide.

Staphylococcus aureus = conditions: 18 h
Method: as §1

Compound	Toxicity ([1]; peptide 5 μM, 3 hours or 24 hours, WST-1 conversion)	toxicity, in words ([1]; primary human nasal epithelial cells)	Bioscreen MIC values Pseudomonas aeruginosa (Pseudomonas aeruginosa) [µM]	Bioscreen MIC values Staphylococcus aureus (Staphylococcus aureus) [µM]	toxicity, in words [1]
CC[C@H](C)[C@H](NC(=O)[C@H](CCCCN)NC(=O)[C@H](CCC(=O)O)NC(=O)[C@H](CCCCN)NC(=O)[C@H](CO)NC(=O)[C@H](CCCCN)NC(=O)[C@H](CCCNC(=N)N)NC(=O)[C@H](Cc1ccccc1)NC(=O)[C@H](Cc1ccccc1)NC(=O)[C@H](CC(=O)O)NC(=O)CNC(=O)[C@H](CC(C)C)NC(=O)[C@@H](N)CC(C)C)C(=O)NCC(=O)N[C@@H](CCCCN)C(=O)N[C@@H](CCC(=O)O)C(=O)N[C@@H](Cc1ccccc1)C(=O)N[C@@H](CCCCN)C(=O)N[C@@H](CCCNC(=N)N)C(=O)N[C@H](C(=O)N[C@H](C(=O)N[C@@H](CCC(N)=O)C(=O)N[C@@H](CCCNC(=N)N)C(=O)N[C@H](C(=O)N[C@@H](CCCCN)C(=O)N[C@@H](CC(=O)O)C(=O)N[C@@H](Cc1ccccc1)C(=O)N[C@@H](CC(C)C)C(=O)N[C@@H](CCCNC(=N)N)C(=O)N[C@@H](CC(N)=O)C(=O)N[C@@H](CC(C)C)C(=O)N[C@H](C(=O)N1CCC[C@H]1C(=O)N[C@@H](CCCNC(=N)N)C(=O)N[C@H](C(=O)N[C@@H](CCC(=O)O)C(=O)N[C@@H](CO)C(N)=O)[C@@H](C)O)C(C)C)[C@@H](C)CC)C(C)C)[C@@H](C)CC [SEQ ID NO: 1]	++	more toxic			
APKAMRRWVQRWIRRWRPKVFQVTGSSA-NH2 [SEQ ID NO: 22]			10	>10	
APKAMRRWVQRWIRRWRPKVLLHYPSQKF-NH2 [SEQ ID NO: 23]			2.5	>10	
APKAMRRWVQRWIRRWRPKVLQKKGI-NH2 [SEQ ID NO: 18]			5	>10	
APKAMRRWVQRWIRRWRPKVLQKNNYL-NH2 [SEQ ID NO: 21]			2.5	>10	
APKAMRRWVQRWIRRWRPLQKKGI-NH2 [SEQ ID NO: 20]			10	>10	
APKAMRRWVQRWIRRWRPRLQKKGI-NH2 [SEQ ID NO: 19]			5	>10	
APKAMRRWVQRWIRRWRPRV-NH2 [SEQ ID NO: 17]			5	>10	
APKAMRWVQRWIRRWRPKLQKKGI-NH2 [SEQ ID NO: 26]			10	>10	
APKAMWVQRWIRRWRPLQKKGI-NH2 [SEQ ID NO: 27]			>10	>10	weakly toxic
RFGRFLRKIRRFRPKVTITIQGSARF-NH2 [SEQ ID NO: 2, reference compound]			1.25	1.25	extremely toxic
RRWVQRWIRRWRKVAAARRWVQRWIRRWRPKV-NH2 [SEQ ID NO: 13]			1.25	1.25	
RRWVQRWIRRWRKWV-NH2 [SEQ ID NO: 7, RRWVQRWIRRWRKWV]			1.25	2.5	
RRWVQRWIRRWRPK-NH2 [SEQ ID NO: 8, RRWVQRWIRRWRPK]			10	>10	
RRWVQRWIRRWRPKLQKKGI-NH2 [SEQ ID NO: 16]			10	>10	
RRWVQRWIRRWRPKRIVQRIKDFLRNLV-NH2 [SEQ ID NO: 11]			1.25	2.5	
RRWVQRWIRRWRPKVAAARRWV-NH2 [SEQ ID NO: 10]			1.25	10	
RRWVQRWIRRWRPKVAAARRWVQRWIRRWRPKV-NH2 [SEQ ID NO: 12]			1.25	1.25	
RRWVQRWIRRWRPKVLQKKGI-NH2 [SEQ ID NO: 14]			10	>10	
RRWVQRWIRRWRPKW-NH2 [SEQ ID NO: 9, RRWVQRWIRRWRPKW]			5	10	
RRWVQRWIRRWRPWV-NH2 [SEQ ID NO: 6, RRWVQRWIRRWRPWV]			2.5	10	
RRWVRRWIRRWRPKV-NH2 [SEQ ID NO: 25, RRWVRRWIRRWRPKV]			5	>10	
